# Results: patent US11844844B2, “Fusion protein comprising glutathione-s-transferase and protein having binding affinity target cell or target protein, and use thereof” (UNIST(ULSAN NATIONAL INSTITUTE OF SCIENCE AND TECHNOLOGY), priority 2017, dated 2023)
# System: RAW 264.7 cells
# Assay: Cytotoxicity against macrophage, alamar blue
# Type: cell-based
# Settings: CPT 0.01 to 2.5 μg/ml, 48 hr; PCSNs stored in 55% FBS 1 hr
# Method: In detail, CPT-loaded HER2-PCSNs were prepared and stored in a high concentration of serum protein environment of 55% FBS for 1 hr. Thereafter, the stored HER2-PCSNs were collected and washed, and then treated to RAW 264.7 cells at a CPT concentration of 0.01 μg/ml, 0.1 μg/ml, 0.25 μg/ml, 0.5 μg/ml, 1.0 μg/ml, or 2.5 μg/ml, followed by incubation for 48 hr. After completing incubation, cell viability was examined using an alamar blue dye. As a control for comparison of the cell killing effect, RAW 264.7 cells were treated with free CPT which was not loaded in nanoparticles, and cell viability thereof was examined.
compound,measurement,value
"CC[C@@]1(O)C(=O)OCc2c1cc1n(c2=O)Cc2cc3ccccc3nc2-1 [free CPT, camptothecin]",cell killing effect on macrophages (cell viability),exhibited the cell killing effect on RAW 264.7 cells with increasing treatment concentrations
